Experimental data from US9522913B2, “Pesticidally active bicyclic heterocycles with sulphur containing substituents” (Syngenta Participations AG, priority 2013, dated 2016).

Assays:
Assay type in all cases: in vivo
[1] = system: Diabrotica balteata (corn root worm); assay: Activity against Diabrotica balteata, larvicide, feeding/residual contact activity, preventive (Example B2); conditions: 120 h, maize sprouts sprayed, L2 larvae, 5 days incubation, read-out: activity (larval mortality, growth regulation)
Method: (§1) (Larvicide, Feeding/Residual Contact Activity, Preventive)
Maize sprouts, placed on an agar layer in 24-well micro titer plates (MTP) are treated with test solutions by spraying. After drying, the MTPs are infested with larvae (L2, 6-10 per well). After an incubation period of 5 days, samples are checked for larval mortality, and growth regulation.

[2] = system: Spodoptera littoralis (Egyptian cotton leaf worm); assay: Activity against Spodoptera littoralis, larvicide, feeding/residual contact activity, preventive (Example B1); conditions: foliar, 72 h, cotton leaf discs sprayed, L1 larvae, 3 days after treatment, read-out: activity (mortality, repellent effect, feeding behaviour, growth regulation)
Excerpt: (Larvicide, Feeding/Residual Contact Activity, Preventive) Cotton leaf discs are placed on agar in a 24-well microtiter plate and sprayed with test solutions. After drying, the leaf discs are infested with 5 L1 larvae. The samples are checked for mortality, repellent effect, feeding behaviour, and growth regulation 3 days after treatment (DAT).

[3] = system: Plutella xylostella (diamond back moth); assay: Activity against Plutella xylostella, larvicide, feeding/residual contact activity, preventive (Example B4); conditions: 120 h, artificial diet, L2 larvae, 5 days incubation, read-out: activity (larval mortality, antifeedant, growth regulation)
Method: as §1
24-well microtiter plate (MTP) with artificial diet was treated with test solutions by pipetting. After drying, the MTPs were infested with L2 larvae (10-15 per well). After an incubation period of 5 days, samples were checked for larval mortality, antifeedant and growth regulation.

[4] = system: Myzus persicae (green peach aphid); assay: Activity against Myzus persicae, feeding/residual contact activity, preventive, mixed population (Example B5); conditions: foliar, 144 h, sunflower leaf discs sprayed, mixed-age aphids, 6 DAT
Method: (Feeding/Residual Contact Activity, Preventive), Mixed Population
Sunflower leaf discs were placed on agar in a 24-well microtiter plate and sprayed with test solutions.
After drying, the leaf discs were infested with an aphid population of mixed ages. After an incubation period of 6 DAT, samples were checked for mortality and special effects (e.g. phytotoxicity).

[5] = system: Spodoptera littoralis (Egyptian cotton leaf worm); assay: Activity against Spodoptera littoralis, systemic activity (Example B3); conditions: 120 h, systemic via lettuce roots in agar, 5 days after infestation, read-out: activity (mortality, repellent effect, feeding behavior, growth regulation)
Excerpt: Test compounds were applied by pipette into 24 well plates and mixed with agar. Lettuce seeds were placed on the agar and the multi well plate is closed by another plate which contains also agar. After 7 days the roots have absorbed the compound and the lettuce has grown into the lid plate. The lettuce leaves were now cut off into the lid plate. Spodoptera eggs were pipetted through a plastic stencil on a humid gel blotting paper and the plate closed with it. The samples are checked for mortality, repellent effect, feeding behavior, and growth regulation 5 days after infestation.

[6] = system: Aedes aegypti (yellow fever mosquito); assay: whole plant or invertebrate; conditions: after 48 h, application rate of 200 ppm in ethanol, adult females, read-out: control of Aedes aegypti (mortality)
Method: Test solutions, at an application rate of 200 ppm in ethanol, were applied to 12-well tissue culture plates. Once the deposits were dry, five, two to five days old adult female Aedes aegypti were added to each well, and sustained with a 10% sucrose solution in a cotton wool plug. Assessment of knockdown was made one hour after introduction, and mortality was assessed at 24 and 48 hours after introduction.

[7] = system: Myzus persicae (green peach aphid); assay: Activity against Myzus persicae, systemic/feeding activity, curative, mixed population (Example B6); conditions: 144 h, roots of infested pea seedlings in test solution, 6 days after introduction
Excerpt: (Systemic/Feeding Activity, Curative), Mixed Population
Roots of pea seedlings, infested with an aphid population of mixed ages, were placed directly in the test solutions. 6 days after introduction, samples were checked for mortality and special effects on the plant.

[8] = system: Rhopalosiphum padi (bird cherry oat aphid); assay: Seed treatment activity against Rhopalosiphum padi on barley (Example B8); conditions: after 28 days, initial loading of 0.3 mg a.i. per seed
Method: Seed Treatment Activity Against Rhopalosiphum padi (Bird Cherry Oat Aphid) (Seed Treatment Systemic/Feeding Activity on Barley, Preventive, Initial and Residual Activity (Infestation 2 and 4 Weeks after Sowing)), Mixed Population
A treated barley seed is sown in a 350 ml pot filled with soil. Two weeks after sowing phytotoxicity is estimated and expressed in percentage compared to the control. Furthermore the barley seedling is infested with an aphid population of mixed stages. After an incubation period of seven days the grade of efficacy compared to the control is estimated and expressed in percentage. Treatments with all replicates having a level of efficacy over 90% are re-infested with aphids 28 days after sowing for determination of residual activity. Assessment procedures remain the same as described above.

[9] = system: Bemisia tabaci (cotton white fly); assay: Activity against Bemisia tabaci, adulticide contact activity, preventative (Example B7); conditions: foliar, 168 h, cotton leaf discs sprayed, adult white flies, 7 DAT
Method: (Adulticide Contact Activity, Preventative), Adult
Cotton leaf discs were placed on agar in a 24-well microtiter plate and sprayed with test solutions. After drying, the leaf discs were infested with adult white flies. After an incubation period of 7 DAT, samples were checked for mortality and special effects (e.g. phytotoxicity).

SMILES	mortality at 400 ppm [1] [%]	mortality at 400 ppm [2] [%]	mortality at 400 ppm [3] [%]	mortality at 400 ppm [4] [%]	mortality at 12.5 ppm [5] [%]	mortality at 200 ppm [6] [%]	mortality at 24 ppm [7] [%]	control of Rhopalosiphum padi (efficacy compared to the control) [8]	mortality at 400 ppm [9] [%]
CC/S(=N\C#N)c1cc(C(F)(F)F)cnc1-c1nc2cc(C(F)(F)F)cnc2n1C (stereo not shown) [P1.1, [ethyl-[2-[3-methyl-6-(trifluoromethyl)imidazo[4,5-b]pyridin-2-yl]-5-(trifluoromethyl)-3-pyridyl]-λ^4-sulfanylidene]cyanamide]	> 80	–	–	–	–	–	–	–	–
CCS(=O)(=NC#N)c1cc(C(F)(F)F)cnc1-c1nc2cc(C(F)(F)F)cnc2n1C (stereo not shown) [P1.2, [ethyl-[2-[3-methyl-6-(trifluoromethyl)imidazo[4,5-b]pyridin-2-yl]-5-(trifluoromethyl)-3-pyridyl]-oxo-λ^6sulfanylidene]cyanamide]	> 80	> 80	–	–	–	–	–	–	–
CCS(=O)(=NC(=O)C(F)(F)F)c1cc(C(F)(F)F)cnc1-c1nc2cc(C(F)(F)F)cnc2n1C (stereo not shown) [P1.3, N-[ethyl-[2-[3-methyl-6-(trifluoromethyl)imidazo[4,5-b]pyridin-2-yl]-5-(trifluoromethyl)-3-pyridyl]-oxo-λ^6-sulfanylidene]-2,2,2-trifluoro-acetamide]	> 80	> 80	> 80	> 80	≥ 80	≥ 80	≥ 80	–	–
CCS(=N)(=O)c1cc(C(F)(F)F)cnc1-c1nc2cc(C(F)(F)F)cnc2n1C (stereo not shown) [P1.4, ethyl-imino-[2-[3-methyl-6-(trifluoromethyl)imidazo[4,5-b]pyridin-2-yl]-5-(trifluoromethyl)-3-pyridyl]-oxo-λ^6-sulfane]	–	> 80	> 80	> 80	≥ 80	–	≥ 80	at least 80%	> 80
CCS(=O)(=NC(N)=O)c1cc(C(F)(F)F)cnc1-c1nc2cc(C(F)(F)F)cnc2n1C (stereo not shown) [P1.5, [ethyl-[2-[3-methyl-6-(trifluoromethyl)imidazo[4,5-b]pyridin-2-yl]-5-(trifluoromethyl)-3-pyridyl]-oxo-λ^6sulfanylidene]urea]	> 80	–	–	–	–	≥ 80	–	–	–
CCS(=O)(=NC)c1cc(C(F)(F)F)cnc1-c1nc2cc(C(F)(F)F)cnc2n1C (stereo not shown) [P1.6, ethyl-methylimino-[2-[3-methyl-6-(trifluoromethyl)imidazo[4,5-b]pyridin-2-yl]-5-(trifluoromethyl)-3-pyridyl]-oxo-λ^6-sulfane]	> 80	> 80	> 80	> 80	≥ 80	≥ 80	≥ 80	–	> 80
CCC(=O)N=S(=O)(CC)c1cc(C(F)(F)F)cnc1-c1nc2cc(C(F)(F)F)cnc2n1C (stereo not shown) [P1.7, N-[ethyl-[2-[3-methyl-6-(trifluoromethyl)imidazo[4,5-b]pyridin-2-yl]-5-(trifluoromethyl)-3-pyridyl]-oxo-λ^6-sulfanylidene]propanamide]	–	> 80	> 80	> 80	≥ 80	≥ 80	–	–	> 80
CCS(=O)(=NC(=O)OC)c1cc(C(F)(F)F)cnc1-c1nc2cc(C(F)(F)F)cnc2n1C (stereo not shown) [P1.8, methyl N-[ethyl-[2-[3-methyl-6-(trifluoromethyl)imidazo[4,5-b]pyridin-2-yl]-5-(trifluoromethyl)-3-pyridyl]-oxo-λ^6-sulfanylidene]carbamate]	–	> 80	> 80	> 80	≥ 80	≥ 80	≥ 80	–	> 80
CCS(=O)(=NC=O)c1cc(C(F)(F)F)cnc1-c1nc2cc(C(F)(F)F)cnc2n1C (stereo not shown) [P1.10, N-[ethyl-[2-[3-methyl-6-(trifluoromethyl)imidazo[4,5-b]pyridin-2-yl]-5-(trifluoromethyl)-3-pyridyl]-oxo-λ^6sulfanylidene]formamide]	–	> 80	> 80	> 80	≥ 80	–	≥ 80	–	> 80
